Test results taken from patent publication US9096832B2, “Differentiation of human embryonic stem cells” (LifeScan, Inc., priority 2007, dated 2015).

Test system: H9 embryonic stem cells
Assay: Microarray analysis of definitive endoderm stage cells on […] or MEFs +/- Wnt-3a (Table VI)
Assay type: cell-based, human
Settings: for mean normalized intensity: ESTs: DE treatment in low serum on MEFS, log format

Substance: Activin A: activin A (a member of the TGFβ superfamily), R&D Systems; 'w/o wnt' in Table VII = 100 ng/ml Activin A without Wnt3a
- mean normalized intensity: ESTs (gene line r2134): −0.9461
- mean normalized intensity: ESTs (gene line r2148): 5.334
- Intensity (log): 6-phosphofructo-2-kinasefructose-2,6-biphosphatase 4 (low serum, on MATRIGEL): −0.2429
- Intensity (log): ESTs, Highly similar to IHH_HUMAN INDIAN HEDGEHOG PROTEIN PRECURSOR (H. sapiens) (low serum, on MATRIGEL): −0.654
- Intensity (log): ESTs, Moderately similar to JE0284 Mm-1 cell derived transplantability-associated protein 1b (H. sapiens) (low serum, on MATRIGEL): −2.377
- Intensity (log): ESTs, Weakly similar to FCE2 MOUSE LOW AFFINITY IMMUNOGLOBULIN EPSILON FC RECEPTOR (M. musculus) (low serum, on MATRIGEL): 0.4942
- Intensity (log): ESTs, Weakly similar to the 331st table hypothetical protein KIAA0555 (H. sapiens) (low serum, on MATRIGEL): −1.574
- Intensity (log): G protein-coupled receptor (low serum, on MATRIGEL): 1.507
- Intensity (log): G protein-coupled receptor 49 (low serum, on MATRIGEL): 0.2655
- Intensity (log): Homo sapiens Kell blood group (KEL), mRNA (low serum, on MATRIGEL): −2.205
- Intensity (log): Homo sapiens MLL septin-like fusion (MSF), mRNA (low serum, on MATRIGEL): −3.292
- Intensity (log): Homo sapiens Mix-like homeobox protein 1 (MILD1) mRNA, complete cds (low serum, on MATRIGEL): −1.546
- Intensity (log): Homo sapiens Rho GTPase activating protein 6 (ARHGAP6), transcript variant 2, mRNA (low serum, on MATRIGEL): −1.104
- Intensity (log): Homo sapiens TBX3-iso protein (TBX3-iso), mRNA (low serum, on MATRIGEL): −2.346
- Intensity (log): Homo sapiens angiopoietin 2 (ANGPT2), mRNA (low serum, on MATRIGEL): −2.93
- Intensity (log): Homo sapiens ankyrin-like with transmembrane domains 1 (ANKTM1), mRNA (low serum, on MATRIGEL): −1.109
- Intensity (log): Homo sapiens apolipoprotein A-I (APOA1), mRNA (low serum, on MATRIGEL): −1.471
- Intensity (log): Homo sapiens apolipoprotein A-II (APOA2), mRNA (low serum, on MATRIGEL): −1.033
- Intensity (log): Homo sapiens arylsulfatase E (chondrodysplasia punctata 1) (ARSE), mRNA (low serum, on MATRIGEL): 0.283
- Intensity (log): Homo sapiens atrophin-1 interacting protein 1; activin receptor interacting protein 1 (KIAA0705), mRNA (low serum, on MATRIGEL): −4.308
- Intensity (log): Homo sapiens beta-site APP cleaving enzyme (BACE) mRNA, complete cds (low serum, on MATRIGEL): −2.0354
- Intensity (log): Homo sapiens cDNA FLJ11550 fis, clone HEMBA1002970 (low serum, on MATRIGEL): −1.222
- Intensity (log): Homo sapiens cDNA FLJ12993 fis, clone NT2RP3000197 (low serum, on MATRIGEL): 0.1473
- Intensity (log): Homo sapiens cDNA FLJ13221 fis, clone NT2RP4002075 (low serum, on MATRIGEL): 0.3557
- Intensity (log): Homo sapiens cardiac ventricular troponin C mRNA, complete cds (low serum, on MATRIGEL): −0.5497
- Intensity (log): Homo sapiens cartilage linking protein 1 (CRTL1), mRNA (low serum, on MATRIGEL): −1.315
- Intensity (log): Homo sapiens cell adhesion molecule with homology to L1CAM (close homologue of L1) (CHL1), mRNA (low serum, on MATRIGEL): −0.5412
- Intensity (log): Homo sapiens chromosome 19, cosmid R31181 (low serum, on MATRIGEL): −0.2589
- Intensity (log): Homo sapiens clone 23736 mRNA sequence (low serum, on MATRIGEL): −0.04718
- Intensity (log): Homo sapiens cryptic mRNA, complete cds (low serum, on MATRIGEL): 0.1049
- Intensity (log): Homo sapiens cystatin S (CST4), mRNA (low serum, on MATRIGEL): 0.9245
- Intensity (log): Homo sapiens cystatin SA (CST2), mRNA (low serum, on MATRIGEL): −0.1022
- Intensity (log): Homo sapiens cystatin SN (CST1), mRNA (low serum, on MATRIGEL): 0.07293
- Intensity (log): Homo sapiens cytidine deaminase (CDA), mRNA (low serum, on MATRIGEL): −3.891
- Intensity (log): Homo sapiens dual specificity phosphatase 4 (DUSP4), mRNA (low serum, on MATRIGEL): 0.9539
- Intensity (log): Homo sapiens fibroblast growth factor 8 (androgen-induced) (FGF8), mRNA (low serum, on MATRIGEL): −4.328
- Intensity (log): Homo sapiens fibroblast growth factor 17 (FGF17), mRNA (low serum, on MATRIGEL): −0.8946
- Intensity (log): Homo sapiens frizzled-related protein (FRZB), mRNA (low serum, on MATRIGEL): 0.565
- Intensity (log): Homo sapiens gastrin-releasing peptide (GRP), mRNA (low serum, on MATRIGEL): −2.741
- Intensity (log): Homo sapiens glycophorin E (GYPE), mRNA (low serum, on MATRIGEL): −2.016
- Intensity (log): Homo sapiens glycophorin Erik STA (GPErik) gene complete cds (low serum, on MATRIGEL): −1.194
- Intensity (log): Homo sapiens growth differentiation factor 3 (GDF3), mRNA (low serum, on MATRIGEL): 1.673
- Intensity (log): Homo sapiens haptoglobin (HP), mRNA (low serum, on MATRIGEL): −1.101
- Intensity (log): Homo sapiens haptoglobin-related protein (HPR), mRNA (low serum, on MATRIGEL): −2.6068
- Intensity (log): Homo sapiens homeobox protein goosecoid mRNA, complete cds (low serum, on MATRIGEL): −4.42
- Intensity (log): Homo sapiens hypothetical protein FLJ10718 (FLJ10718), mRNA (low serum, on MATRIGEL): 2.605
- Intensity (log): Homo sapiens hypothetical protein FLJ10970 (FLJ10970), mRNA (low serum, on MATRIGEL): −0.432
- Intensity (log): Homo sapiens hypothetical protein FLJ11316 (FLJ11316), mRNA (low serum, on MATRIGEL): −0.9047
- Intensity (log): Homo sapiens hypothetical protein FLJ22252 similar to SRY-box containing gene 17 (FLJ22252), mRNA (low serum, on MATRIGEL): 1.368
- Intensity (log): Homo sapiens lumican (LUM), mRNA (low serum, on MATRIGEL): −4.057
- Intensity (log): Homo sapiens mRNA for GATA-6, complete cds (low serum, on MATRIGEL): 2.219
- Intensity (log): Homo sapiens mRNA for KIAA1409 protein, partial cds (low serum, on MATRIGEL): 0.3683
- Intensity (log): Homo sapiens mRNA; cDNA DKFZp434D0818 (from clone DKFZp434D0818) (low serum, on MATRIGEL): −2.634
- Intensity (log): Homo sapiens mRNA; cDNA DKFZp586J0624 (from clone DKFZp586J0624); complete cds (low serum, on MATRIGEL): −0.8352
- Intensity (log): Homo sapiens presenilin stabilization factor b (PSF) mRNA, complete cds; alternatively spliced (low serum, on MATRIGEL): −0.8617
- Intensity (log): Homo sapiens reserved (KCNK12), mRNA (low serum, on MATRIGEL): −0.4687
- Intensity (log): Homo sapiens retinoid X receptor, gamma (RXRG), mRNA (low serum, on MATRIGEL): −2.375
- Intensity (log): Homo sapiens sema domain, immunoglobulin domain (Ig), short basic domain, secreted, (semaphorin) 3E (SEMA3E), mRNA (low serum, on MATRIGEL): −0.786
- Intensity (log): Homo sapiens sema domain, seven thrombospondin repeats (type 1 and type 1-like), transmembrane domain (TM) and short cytoplasmic domain, (semaphorin) 5A (SEMA5A), mRNA (low serum, on MATRIGEL): −1.533
- Intensity (log): Homo sapiens solute carrier family 21 (prostaglandin transporter), member 2 (SLC21A2), mRNA (low serum, on MATRIGEL): 0.7114
- Intensity (log): Homo sapiens type VI collagen alpha 2 chain precursor (COL6A2) mRNA, complete cds, alternatively spliced (low serum, on MATRIGEL): 1.7011
- Intensity (log): Homo sapiens, alpha-1 (VI) collagen (low serum, on MATRIGEL): −3.662
- Intensity (log): Homo sapiens, clone MGC: 4655, mRNA, complete cds (low serum, on MATRIGEL): 2.3772
- Intensity (log): Human (clone 8B1) Br-cadherin mRNA, complete cds (low serum, on MATRIGEL): −2.179
- Intensity (log): Human (clone HSY3RR) neuropeptide Y receptor (NPYR) mRNA, complete cds (low serum, on MATRIGEL): 1.775
- Intensity (log): Human DNA sequence from clone RP1-181C24 on chromosome 6p11.1-12.2. Contains the 3 end of the BMP5 gene for bone morphogenetic protein 5, ESTs, STSs and GSSs (low serum, on MATRIGEL): −3.723
- Intensity (log): Human Fritz mRNA, complete cds (low serum, on MATRIGEL): 0.4366
- Intensity (log): Human dipeptidyl peptidase IV (CD26) mRNA, complete cds (low serum, on MATRIGEL): −3.611
- Intensity (log): Human glycophorin HeP2 mRNA, partial cds (low serum, on MATRIGEL): −0.8435
- Intensity (log): Human link protein mRNA, complete cds (low serum, on MATRIGEL): −1.94
- Intensity (log): Human mRNA for alpha-1 type II collagen (low serum, on MATRIGEL): −2.8736
- Intensity (log): Human mRNA for apolipoprotein AI (apo AI) (low serum, on MATRIGEL): 0.2151
- Intensity (log): Human prostatic secretory protein 57 mRNA, complete cds (low serum, on MATRIGEL): −3.013
- Intensity (log): KIAA1462 protein (low serum, on MATRIGEL): −3.846
- Intensity (log): MCP-1 = monocyte chemotactic protein (human, aortic endothelial cells, mRNA, 661 nt) (low serum, on MATRIGEL): −2.276
- Intensity (log): Rho GDP dissociation inhibitor (GDI) alpha (low serum, on MATRIGEL): −1.544
- Intensity (log): WAS protein family, member 2 (low serum, on MATRIGEL): −2.187
- Intensity (log): collagen, type IX, alpha 2 (low serum, on MATRIGEL): 1.27
- Intensity (log): collagen, type VI, alpha 1 (low serum, on MATRIGEL): −1.418
- Intensity (log): hepatocyte nuclear factor 4, alpha (low serum, on MATRIGEL): −4.266
- Intensity (log): homeo box HB9 (low serum, on MATRIGEL): −1.656
- Intensity (log): hypothetical protein FLJ21032 (low serum, on MATRIGEL): 0.3557
- Intensity (log): hypothetical protein FLJ23091 (low serum, on MATRIGEL): 0.3234
- Intensity (log): microfibrillar-associated protein 4 (low serum, on MATRIGEL): 0.06379
- Intensity (log): myristoylated alanine-rich protein kinase C substrate (MARCKS, 80K-L) (low serum, on MATRIGEL): −0.7172
